Data published in ChEMBL document CHEMBL1201862, “PubChem BioAssay data set” (2004).
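Test compounds were applied to cells in 96-well plates for 48 hours at 5 doses. GI50 is the concentration that inhibits growth by half.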 Calls of active or inactive are those of the source. Rule as the data show it: active = GI50 up to about 1.1 µM and inactive = higher.

How the values were obtained:
Experiment in all cases: inhibition of tumour cell growth, NCI panel, 48 h
[1] = tested on: SF-539
[2] = tested on: SK-MEL-28
[3] = tested on: KM-20L2
[4] = tested on: COLO 205
[5] = tested on: MCF7
[6] = tested on: PC-3
[7] = tested on: HCC 2998
[8] = tested on: NCI-H226
[9] = tested on: MDA-MB-231
[10] = tested on: MDA-MB-435
[11] = tested on: BT-549
[12] = tested on: SN12C
[13] = tested on: HCT-116
[14] = tested on: UACC-257
[15] = tested on: K562
[16] = tested on: SR
[17] = tested on: U-251
[18] = tested on: OVCAR-4
[19] = tested on: HOP-92
[20] = tested on: T47D

SMILES	GI50 [1]	GI50 [2]	GI50 [3]	GI50 [4]	GI50 [5]	GI50 [6]	GI50 [7]	GI50 [8]	GI50 [9]	GI50 [10]	GI50 [11]	GI50 [12]	GI50 [13]	GI50 [14]	GI50 [15]	GI50 [16]	GI50 [17]	GI50 [18]	GI50 [19]	GI50 [20]
CN[C@@H]1C[C@H]2O[C@@](C)([C@@H]1OC)n1c3ccccc3c3c4c(c5c6ccccc6n2c5c31)C(=O)N[C@@H]4O	< 0.0151 µM (active)	0.0551 µM (active)	0.104 µM (active)	0.0569 µM (active)	0.0212 µM (active)	0.00904 µM (active)	0.149 µM (active)	0.0194 µM (active)	0.0137 µM (active)	0.0845 µM (active)	0.108 µM (active)	0.0208 µM (active)	0.144 µM (active)	0.0603 µM (active)	0.31 µM (active)	0.0132 µM (active)	0.0456 µM (active)	0.0526 µM (active)		
CCCCC(=O)OC[n+]1ccc2c(C)c3[nH]c4ccc(OC)cc4c3c(C)c2c1	0.367 µM (active)	1.32 µM (inactive)	0.377 µM (active)	0.267 µM (active)	0.168 µM (active)	0.308 µM (active)	0.512 µM (active)	0.562 µM (active)	0.185 µM (active)	0.461 µM (active)		0.146 µM (active)	0.0718 µM (active)	2.13 µM (inactive)	0.0702 µM (active)	0.0506 µM (active)	0.348 µM (active)	0.796 µM (active)	1.23 µM (inactive)	1.03 µM (active)
C=CC(=O)c1ccc2c(c1)OCCOCCOCCOCCOCCO2	17.7 µM (inactive)	18.7 µM (inactive)	30.2 µM (inactive)	17.7 µM (inactive)	16 µM (inactive)	30.9 µM (inactive)	> 100 µM (inactive)	> 100 µM (inactive)	21.3 µM (inactive)	19.5 µM (inactive)	19.9 µM (inactive)	23.8 µM (inactive)	25.9 µM (inactive)	19.1 µM (inactive)	35.6 µM (inactive)	> 100 µM (inactive)	> 57.5 µM (inactive)	20.3 µM (inactive)	17 µM (inactive)	29.3 µM (inactive)
N#C/C(=C1\OC(=O)C(c2ccc(Br)cc2)=C1O)c1ccc(Br)cc1	16.1 µM (inactive)	17.2 µM (inactive)	17.5 µM (inactive)	17.9 µM (inactive)			15.5 µM (inactive)	18.1 µM (inactive)				11.2 µM (inactive)	17.3 µM (inactive)	15.3 µM (inactive)	19.3 µM (inactive)	17.9 µM (inactive)	13.2 µM (inactive)	16.5 µM (inactive)	16.1 µM (inactive)	
O=C1c2ccccc2C(=O)N1C/C=N/NS(=O)(=O)c1ccc(Br)cc1	> 100 µM (inactive)	80 µM (inactive)	> 100 µM (inactive)	> 100 µM (inactive)			> 100 µM (inactive)	> 100 µM (inactive)				> 100 µM (inactive)	> 100 µM (inactive)	> 100 µM (inactive)	> 100 µM (inactive)	> 100 µM (inactive)	> 100 µM (inactive)	> 100 µM (inactive)	11 µM (inactive)	
CC(=O)OC1CCn2nnc(CO)c21 (centres undefined)	58.5 µM (inactive)	> 100 µM (inactive)	> 100 µM (inactive)	> 100 µM (inactive)			> 100 µM (inactive)	> 100 µM (inactive)				> 100 µM (inactive)	> 100 µM (inactive)	> 100 µM (inactive)	> 100 µM (inactive)	> 100 µM (inactive)	> 100 µM (inactive)	> 100 µM (inactive)	> 100 µM (inactive)	
